In test [1] the test system is HUVECs. Put plainly: Inhibition of C-peptide-induced tube formation by HUVECs. The class given is cell-based, human. The conditions noted are these: 0.5 nM C-peptide, 24-30 h. How it is done: FIG. 4A is a graph in which tube formation is quantified by confocal microscopy and results are represented as mean±S.D. from three independent experiments after HUVECs were seeded onto a Matrigel layer and incubated for 24-30 h with 0.5 nM C-peptide (C-pep) in the presence of the indicated concentrations of L-NAME, PD98058, and wortmannin, and
(§1) The formation of capillary-like networks by HUVECs on growth factor-reduced Matrigel (BD Biosciences, Franklin Lakes, N.J.) was achieved using a method known in the art. Briefly, 24-well culture plates were coated with Matrigel according to the manufacturer's instructions. HUVECs were seeded onto a layer of Matrigel at a density of 4×10^5 cells/well, and treated with VEGF or C-peptide at 37° C. for 24 to 30 h. The degree of tube formation was quantified by measuring the length of tubes from the images using the FV-300 software.
(§2) The roles of ERK1/2, PI3K/Akt, and NO in C-peptide-induced angiogenesis were examined using PD98059, wortmannin, and L-NG-nitroarginine methyl ester (L-NAME), respectively.

The test system of test [2] is HUVECs. The test is described as follows: Inhibition of VEGF-induced tube formation by HUVECs. The conditions noted are these: 10 ng/ml VEGF, 24-30 h. The class given is cell-based, human. Here is the method: FIG. 4B is a graph in which tube formation is quantified by confocal microscopy and results are represented as mean±S.D. from three independent experiments after HUVECs were seeded onto a Matrigel layer and incubated for 24-30 h with 10 ng/ml VEGF in the presence of the indicated concentrations of L-NAME, PD98058, and wortmannin.
as §1, §2

Test [3] concerns HUVECs. The test is described as follows: Tube formation assay on Matrigel. It counts as cell-based, human. As to conditions: 24 to 30 h; for formation of capillary-like networks (tube formation): VEGF 10 ng/ml. How it is done:
To examine whether C-peptide can activate angiogenesis in vitro, a tube formation assay was conducted in a Matrigel layer using HUVECs.
as §1

The next test concerns NO. The test is described as follows: Intracellular NO production (DAF-FM DA, confocal microscopy) in HUVECs. It counts as cell-based, human. As to conditions: 2 h, 0.5 nM C-peptide (p<0.05) or 10 ng/ml VEGF (p<0.01). Here is the method:
Since phosphorylation of Akt increases NO production by VEGF, which is the important factor mediating angiogenesis, an examination was made to see whether C-peptide can stimulate NO production. For this, intracellular NO levels were measured using DAF-FM DA (diaminofluorescein-FM diacetate, Molecular Probes, Eugene, Oreg.) according to a method known in the art.
Briefly, HUVECs were treated with VEGF or C-peptide in phenol red-free low-serum media for indicated times and incubated with 2 μM DAF-FM DA for the final 1 h. Thereafter, the cells were washed with low-serum media before confocal microscropy. Levels of intracellular NO were determined by comparing the fluorescence intensities of treated cells with those of untreated control cells and expressing them as fold differences.

A short description of test [4]: Hair follicle regeneration and blood vessel formation around wound (whole-mount PECAM-1 immunostaining). The class given is in vivo. The conditions noted are these: diabetic mice + C-peptide vs diabetic mice, 14 days after wounding. Here is the method: The effect of C-peptide on the regeneration of hair follicles and the formation of blood vessels was observed by whole-mount immunostaining. In this regard, 14 days after wounding, mice were sacrificed, and the dorsal skin was removed for observation of hair follicles and blood vessels. Skin tissues from all the dead mice were excised using a scissor in order to avoid damaging its healing edge, fixed immediately in 4% paraformaldehyde in PBS overnight, and stored overnight in methanol at −20° C. For immunohistochemistry, tissue samples were blocked with 2% BSA in 0.1% TritonX-100 in TBS, and incubated with goat-polyclonal platelet endothelial cell adhesion molecule-I antibody for 2 d, followed by probing with Alexa-546-conjugated rabbit anti-goat IgG and then confocal microscopy.

Test [5] relates to HUVECs. The test is described as follows: Wound healing (scratch) assay (HUVECs). It counts as cell-based, human. As to conditions: 24 h, C-peptide 0.5 nM, VEGF 10 ng/ml, p<0.01. Here is the method: (§3) HUVECs and NIH3T3 cells were cultured on 6-well culture plates coated with gelatin. After being obtained, confluent cell layers were starved with low-serum media for 6 h, stained with 1 μM calcein-AM for 30 min, and wounded with a plastic scraper. Low-serum media and cell debris were removed, followed by replenishing the cell culture with 2 ml of low-serum media containing VEGF or C-peptide. Cells were then incubated at 37° C. for 24 h. Migrated cells was counted from images obtained using a confocal microscope (FV-300, Olympus).

The nature of test [6]: Cutaneous wound healing in streptozotocin-induced diabetic mice. It counts as in vivo. Here is the method: (§4) Male C57BL/6 mice, six weeks old, were purchased from Nara Biotech (Seoul, Korea). The mice were maintained in temperature-controlled clean racks with a 12-h light/dark cycle. All experiments were performed in accordance with the guidelines of the Institutional Animal Care and Use Ethics Committee of Kangwon National University.
Diabetic mice were generated by single intraperitoneal injection of a 100 mM citrate buffer (pH 4.5) containing streptozotocin in (150 mg/kg body weight). After injection, mice were supplied overnight with 10% sucrose to prevent sudden hypoglycemic shock. Sufficient hyperglycemia was observed two days after injection, as measured for blood glucose by the Accu-Check Active blood glucose monitor (Roch Diagnostics, Germany) and for glucosurea by Uriscan (TD Diagnostics, Young-In, Korea). After 1 week, mice with non-fasting blood glucose levels greater than 16 mM, polyuria, and glucosuria were defined diabetic and used for experiment. […]
The dorsal skin of the vertebral column was shaved with Veet cream before creating a wound. Full-thickness skin wounds, 4 mm in diameter, were created on the dorsal surface of the hind limbs with a biopsy punch, and closure was monitored with a digital camera. Open wound size was measured by tracing the wound margin using vernier calipers at regular intervals of two days, and monitored with a digital camera. […]

For the next test, the system named is Akt. The test is described as follows: Akt phosphorylation by Western blot in HUVECs. It counts as cell-based, human. The conditions noted are these: for Akt phosphorylation: 0.5 nM C-peptide or 10 ng/ml VEGF, time-dependent. How it is done: (§5) Since the activation of ERK1/2 and Akt is critical for the induction of cell migration and tube formation, an examination was made of the effect of C-peptide on ERK1/2 and AKT phosphorylation in HUVECs.
(§6) Phosphorylation of ERK1/2 and Akt was determined by Western blot analyses. Briefly, HUVECs were scraped off with ice-cold lysis buffer (50 mM Tris-HCl, pH 7.5, 1% Triton X-100, 150 mM NaCl, 1 mM EDTA, 0.1 mM PMSF, 10 μg/mL aprotinin, and 10 μg/mL leupeptin) and centrifuged at 18,000 g for 10 min at 4° C. The resulting cell lysates were separated by SDS-PAGE and transferred to polyvinylidene fluoride membranes.
(§7) Protein bands were visualized by exposure to X-ray films and a chemiluminescent substrate (Pierce, Rockford, Ill.). Levels of protein phosphorylation were normalized using the total amount of the proteins, and are expressed relative to unstimulated control levels (CON) in FIGS. 3A and 3B.

For test [7], the system named is NIH3T3 cells. The test is described as follows: Wound healing (scratch) assay (NIH3T3 fibroblasts). The class given is cell-based. The conditions noted are these: NIH3T3, 24 h; C-peptide 0.5 nM, FGF-2 1 ng/ml; p<0.01. Here is the method:
as §3
C-peptide-induced cell migration was further investigated by the wound-healing assay. […] FGF-2 also stimulated chemotactic migration and wound healing in fibroblast cells (p<0.01; FIG. 6).

A short description of test [8]: In vivo Matrigel plug assay. As to conditions: mice, s.c. 0.5 ml Matrigel with 5 nM C-peptide or 100 ng/ml VEGF, 7 days, compared with control. How it is done:
as §4
A matrigel plug assay was used to examine whether C-peptide can induce angiogenesis in vivo. In this regard, in vivo Matrigel plug assays were performed according to a method known in the art.
Briefly, mice were injected subcutaneously with 0.5 ml of Matrigel containing 100 ng/ml VEGF or 5 nM C-peptide, and 10 U heparin. After 7 days, the Matrigel plugs were removed from the subcutaneous region, and photographed using a camera (Sony, Japan).

In another test the test system is ERK1/2. The test is described as follows: ERK1/2 phosphorylation by Western blot in HUVECs. The conditions noted are these: for ERK1/2 phosphorylation: 0.5 nM C-peptide or 10 ng/ml VEGF, time-dependent. The class given is cell-based, human. How it is done:
as §5, §6, §7

The subject of test [9] is NIH3T3 cells. Put plainly: Transwell migration assay (NIH3T3 fibroblasts). The class given is cell-based. The conditions noted are these: 12 h; for chemotactic migration of fibroblast cells: FGF-2 1 ng/ml. Here is the method:
NIH3T3 fibroblasts obtained from ATCC (American Type Culture Collection) were grown in a DMEM medium supplemented with 10% calf serum, 100 U/ml penicillin, and 100 μg/ml streptomycin.
NIH3T3 cells were serum starved for 12 hrs in a low-serum medium (DMEM supplemented as above, but with only 0.1% calf serum).
(§8) Angiogenesis is accompanied by endothelial cell migration and capillary-like network formation. To evaluate the ability of C-peptide to induce angiogenesis by examining whether C-peptide stimulates endothelial cell migration, the chemotactic motility of HUVECs and NIH3T3 cells were assayed using TRANSWELL® Permeable Supports (Costar, Corning, N.Y.).
(§9) In detail, the lower surface of the filters was coated with 5 μl of 2% gelatin. Low-serum media containing VEGF, FGF-2 or C-peptide were placed in the lower wells. HUVECs or NIH3T3 cells were seeded at a density of 1×10^5 cells per 200 μl of the low-serum medium in each of the upper wells, and incubated at 37° C. for 12 h. Cells were fixed with 100% methanol for 15 min, stained with hematoxylin and eosin, and dried. The average number of migrated cells in three randomly chosen fields of view per insert was taken to quantify the extent of migration using a fluorescence inverted microscope (Olympus).
To elucidate the role of C-peptide in the migration of chemotactic fibroblast cells, NIH3T3 cells were treated with C-peptide for 12 h.

Test [10] has as its system HUVECs. Put plainly: Transwell migration assay (HUVECs). The class given is cell-based, human. As to conditions: 12 h; for chemotactic migration of endothelial cells: VEGF 10 ng/ml. Here is the method: HUVECs were isolated from the human umbilical cord vein according to a well known process, and cells from passages 3 to 6 were used in the following experiments. Cells were inoculated into M199 culture media (supplemented with 20% FBS, 3 ng/ml bFGF, 5 U/ml heparin, 100 U/ml penicillin, and 100 μg/ml streptomycin) in 2% gelatin-coated coverslips, dishes, or plates, and grown at 37° C. in a humidified 5% CO2 incubator.
For experiments, cells were serum starved for 6 h by incubation in low-serum medium (M199 supplemented as above, but with only 1% FBS), and treated for a suitable time with 10 ng/ml VEGF in the presence or absence of various concentrations of C-peptide.
as §8, §9

Entries after “also recorded” stand apart in the source; their conditions may differ.

`COC(=O)[C@@H](N)CCCNC(=N)N[N+](=O)[O-]` [L-NAME, L-NG-nitroarginine methyl ester]: in the test on HUVECs [1], the “inhibition of C-peptide-stimulated tube formation” value is “dose-dependent inhibition”. Also, the “effect on VEGF-induced tube formation” value with HUVECs [2] was “prevented”.
In the case of `COc1cccc(-c2cc(=O)c3ccccc3o2)c1N` [PD98059], in the test on HUVECs [1], the “concentration of maximal inhibition of C-peptide-stimulated tube formation” value is 10 µM and the “inhibition of C-peptide-stimulated tube formation” value is reported as “inhibited”. Besides, the “effect on VEGF-induced tube formation” value in the test on HUVECs [2] is “prevented”.
As for C-peptide, in the test on HUVECs [3], the “concentration of maximal effect on formation of capillary-like networks” value amounted to 0.5 nM and the “formation of capillary-like networks (tube formation)” value is listed as “stimulated”. Besides, in the test on NO, the “level of intracellular NO” value is recorded as “significantly elevated”. Further, in [4], the “regeneration (number) of hair follicles around wound” value is “significant increase; also recorded: increased”. Also, in test [4] (PECAM-1 staining), the “formation (number) of blood vessels around wound” value is on record as “significant increase; also recorded: increased”. For the same compound, in the test on HUVECs [5], the “cell migration to the wounded area” value was “significantly stimulated”. Besides, in test [6] (STZ-diabetic mice, C-peptide 35 pmol/kg/min s.c. osmotic pump, 4 mm wound, 4 and 10 days after skin injury), the “wound area versus normal mice” value is “no significant differences”. Also, the “wound closure compared with diabetic mice” value in test [6] (diabetic mice + C-peptide vs diabetic mice) is on record as “accelerated”. Further, in the test on Akt (0.5 nM C-peptide), the “time of maximal effect on Akt phosphorylation” value was determined as 15 min. Besides, the Akt phosphorylation result with Akt is on record as “induced”. Besides, the “cell migration to the wounded area (fibroblasts)” value in the test on NIH3T3 cells [7] is on record as “significantly stimulated”. Besides, the “new blood vessel formation in Matrigel plug” value in test [8] is “significantly higher induction”. In the test on ERK1/2 (0.5 nM C-peptide), the “ERK1/2 activation maintained until” value is listed as 60 min and the “time of maximal stimulation of ERK1/2 phosphorylation” value was 15 min. Moreover, in the test on ERK1/2, the ERK1/2 phosphorylation result was “increased”. Further, in the test on NIH3T3 cells [9], the “concentration of maximal effect on chemotactic migration of fibroblast cells” value is given as 1 nM and the “chemotactic migration of fibroblast cells” value is “dose-dependent increase”. For the same compound, in the test with HUVECs [10], the “concentration of maximal effect on chemotactic migration of endothelial cells” value is 0.5 nM and the “chemotactic migration of endothelial cells” value is “dose-dependent increase”.
In the case of “FGF-2: growth factor used as comparator for fibroblast migration [reference compound]”, in the test with NIH3T3 cells [7], the “cell migration to the wounded area (fibroblasts)” value is “stimulated”. Further, the “chemotactic migration of fibroblast cells” value with NIH3T3 cells [9] is recorded as “stimulated”.
As for “vascular endothelial growth factor [VEGF, reference compound]”, the “formation of capillary-like networks (tube formation)” value with HUVECs [3] was “induced”. Further, the “level of intracellular NO” value in the test with NO is given as “higher level”. Also, the “cell migration to the wounded area” value in the test on HUVECs [5] was “stimulated”. Moreover, in the test with Akt, the Akt phosphorylation entry is “induced”. Besides, the “new blood vessel formation in Matrigel plug” value in [8] was “similar”. Besides, the ERK1/2 phosphorylation result in the test on ERK1/2 is recorded as “induced”. Moreover, the “chemotactic migration of endothelial cells” value with HUVECs [10] is “stimulated”.

For the origin of these results see US9119816B2, “Method for prevention or treatment of diabetic angiogenesis impairment using C-peptide” (KANGWON NATIONAL UNIVERSITY UNIVERSITY-INDUSTRY COOPERATION …, priority 2012, dated 2015).
